Test results published in article PMC7381740 (Theranostics, 2020).
Where “and” joins values, the source holds several entries; their conditions need not be identical. Equal values may be shown once.

Assays:
S1R [1] = target: T1, S1R (Rattus norvegicus, UniProt Q9R0C9); experiment: PET-CT brain uptake at baseline; settings: for maximum brain uptake: PET time-activity curve; for average uptake (sum-image 20-60 min post-injection): baseline
Method: Sixty minutes PET scans were performed on 23 animals on a Siemens Inveon® PET/CT scanner (Injected dose: 38±11MBq). Eight of them were used for basal uptake. […] Animals scanned on multiple occasions (with/without blocking or different blocking agent) were always scanned at least 24 h apart. […] Animal respiration and temperature were controlled using a pressure-sensitive pad and rectal probe (BioVet, m2m Imaging Corp., Cleveland, OH, USA) and body temperature was maintained at 37 ± 0.7 °C via the interface managed by the BioVet system. […] Briefly, a CT scan was performed prior to the PET acquisition for attenuation correction. The list mode emission data were histogrammed into 3D sinograms of 35 dynamic frames, normalized, corrected for dead-time, attenuation, scatter and radioactive decay, and reconstructed using OSEM3D (16 subsets and 4 iterations) into images of dimensions 128 × 128 × 159 voxels of volume 0.776 × 0.776 × 0.796 mm^3.
PET-CT images were co-registered with the rat MRI template and its associated intracranial mask as published by Schwarz et al. [41] and generously provided by GSK. To co-register the MRI template and PET-CT images, individual brain masks were delineated on each CT image and co-registered with the MRI brain mask using rigid registration with mutual information. Image analysis and quantification was performed using the BrainVisa/Anatomist software (http://www.brainvisa.info) using the geometric transfer matrix (GTM) and ROIopt methods for partial volume correction both described and used previously [42]-[46]. […] PET data were expressed as SUV.

σ1 receptor (S1R) = settings: cited from earlier work
S1R [2] = target: T1, S1R; experiment: Autoradiography in AMPA-injected rat brain sections; assay type: binding; settings: striatum (caudate-putamen + globus pallidus), AMPA rats
Method: Animals were maintained normothermic (body temperature: 37.0 ± 0.4 °C) during the surgery through the use of a heating blanket (Homeothermic Blanket Control Unit, Harvard Apparatus Limited®, Edenbridge, Kent, UK). Twenty-four hours later, the rats were anesthetized again as described above and scanned with a 3T cryogen-free MRS 3000 scanner with a quadrature, rat head coil (MR Solutions, Guildford, UK), [35] to assess oedema (i.e. lesion size and location) immediately before the PET scan. Parameters for the T2-weighted RARE sequence were: repetition time = 4800 ms, base echo time = 17 ms, effective echo time = 68 ms, number of echoes = 8, bandwidth = 20 kHz, number of samples = 256, number of views = 240, number of averages = 1 with 25 slices of 1.06 mm, giving a final voxel size of 0.136 × 0.136 × 1.06 mm.
Sections of frontal (Brodmann areas 8/9) and temporal cortex (Brodmann areas 21/22) were cut from frozen human tissue blocks. […] Autoradiographs were analysed using AIDA software (Raytest GmbH, Germany). […] Specific binding (total binding minus non-specific binding) in each ROI is expressed as intensity of the photostimulated luminescence (PSL) per pixel.
Specific binding in the ipsi- and contralateral striatum in the rat AMPA model was analysed with a paired t-test.

S1R [3] = target: T2, S1R (Mus musculus, UniProt O55242); experiment: Autoradiography in 6-OHDA Parkinson's disease mouse model; assay type: binding; settings: 6-OHDA mouse
T2 construct: using 20µm fresh frozen brain sections from 6 naïve and 3 AMPA-injected Wistar rats, 6 C57Bl6 mice; from tissue; host or cells: fresh frozen brain sections of 6-OHDA-lesioned C57Bl6 mice
Method: C57Bl6 mice were bred in the animal facility of the European Institute for Molecular Imaging (University of Muenster). Animal experiments were performed in accordance with the German laws for animal protection and were approved by the local bureau for animal care (LANUV, Landesamt für Natur, Umwelt und Verbraucherschutz Nordrhein-Westfalen). For stereotactic injections, mice (n = 6) were anaesthetised (ketamine/xylazine i.p.) and placed into a stereotactic frame. A small skin incision followed by craniotomy was performed. The needle was placed in position (coordinates: AP: +0.5 mm; ML: -2.0 mm; DV: -3.0 mm) and after 1 min, 2 µL of 5 mg/mL 6-hydroxydopamine (6-OHDA) in 0.9% NaCl and 0.02% ascorbic acid were injected into the left striatum using a 5 µL Hamilton 7005KH syringe. The syringe was kept in place for 5 min in order to allow the solution to diffuse into the surrounding tissue and was then retracted slowly.
(§1) Sections of frontal (Brodmann areas 8/9) and temporal cortex (Brodmann areas 21/22) were cut from frozen human tissue blocks. Human and rodents sections were mounted on to glass slides (SuperFrost Plus Gold and SuperFrost Plus slides, Thermo Fisher Scientific Inc., MA, USA for human and animal tissues, respectively). For all steps described below, Tris buffer (Trizma pre-set crystals (Sigma, UK), 50 mM, with 120 mM NaCl, with pH adjusted to 7.4 at 4 °C or room temperature) was used. Slides were allowed to defrost then pre-incubated in Tris Buffer at 4 °C for 5min. […] Adjacent sections were incubated with the same solution containing an excess of unlabelled IAM6067 (2 µM) to assess non-specific binding. Next the slides were washed 2 × 2 min in Tris buffer at 4 °C, followed by a quick rinsing in distilled water at 4 °C. Slides were then dried promptly before exposition on Phosphor-Imager plates overnight. Autoradiographs were analysed using AIDA software (Raytest GmbH, Germany). […] Specific binding (total binding minus non-specific binding) in each ROI is expressed as intensity of the photostimulated luminescence (PSL) per pixel.

[4] = Metabolite analysis in plasma and brain (radio-HPLC after i.v. injection); assay type: in vivo, rat
Method: Blood samples were collected at 1, 2, 5 min post-injection and at 10, 20, 40 or 60 min post-injection when the animals were sacrificed. Seven animals used for metabolites analysis were also scanned for 60 min. Plasma was isolated by centrifugation (3 min, 3000 × g at 4 °C). Two hundred µL of CH3CN was added to 200 µL of serum for protein precipitation and after centrifugation (3 min, 3000 × g at 4 °C), 100 µL of supernatant was injected into the HPLC for quantification (HPLC equipment: Shimadzu prominence with a UV detector and bespoke Scintillation detector; column: ACE 3 C18 HL, [Hichrom], 150 × 4.6 mm; porosity: 3 μm; solvent A: 0.1 M ammonium acetate; solvent B: CH3CN, isocratic elution: 50:50 (A/B) in 15 min; flow rate: 1 mL/min; room temperature; absorbance detection at λ = 254 nm). Animal brains were removed and then homogenised by ultra-Turrax® in 2 mL of ice-cold acetonitrile. After centrifugation (3 min, 9000 × g at 4 °C), the supernatant was separated from the pellet. One hundred microliters of brain supernatant were injected on the HPLC column (same conditions as above). Control samples were spiked with 15 µL of stable standard. The parent radiotracer eluted at 11 minutes.

S1R [5] = target: T1, S1R; experiment: In vitro autoradiography, naive rat brain sections; assay type: binding; settings: 2 nM tracer
Method: as §1

T1 sequence (Q9R0C9 whole entry): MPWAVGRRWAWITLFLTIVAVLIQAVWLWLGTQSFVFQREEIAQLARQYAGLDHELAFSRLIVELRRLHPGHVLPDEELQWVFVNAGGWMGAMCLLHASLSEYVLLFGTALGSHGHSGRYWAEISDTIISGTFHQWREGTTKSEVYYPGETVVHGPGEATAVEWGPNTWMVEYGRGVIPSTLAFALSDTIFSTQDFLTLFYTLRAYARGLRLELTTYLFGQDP
T2 sequence (O55242 whole entry): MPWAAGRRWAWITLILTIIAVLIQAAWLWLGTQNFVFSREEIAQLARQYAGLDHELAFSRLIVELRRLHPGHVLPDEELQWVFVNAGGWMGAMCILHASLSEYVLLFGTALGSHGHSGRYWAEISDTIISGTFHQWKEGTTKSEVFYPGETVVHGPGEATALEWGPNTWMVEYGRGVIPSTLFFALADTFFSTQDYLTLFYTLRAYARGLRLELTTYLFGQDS

SMILES: FCCOc1ccc(CN2CCN(Cc3cc4ccccc4o3)CC2)cc1 [^18F-IAM6067, N-(2-Benzofuranylmethyl)-N'-[4-(2-fluoroethoxy)benzyl]piperazine]
- maximum brain uptake (S1R [1]; amygdala): 3.3 SUV
- average uptake (sum-image 20-60 min post-injection) (S1R [1]; caudate/putamen): 2.3 ± 0.1 SUV
- average uptake (sum-image 20-60 min post-injection) (S1R [1]; cingulate cortex): 2.3 ± 0.2 SUV
- average uptake (sum-image 20-60 min post-injection) (S1R [1]; mesencephalic region): 4.7 ± 0.3 SUV
- average uptake (sum-image 20-60 min post-injection) (S1R [1]; pons-raphe): 6.4 ± 0.8 SUV
- average uptake (sum-image 20-60 min post-injection) (S1R [1]; substantia nigra): 3.8 ± 0.7 SUV
- average uptake (sum-image 20-60 min post-injection) (S1R [1]; temporal cortex): 2.5 ± 0.2 SUV
- average uptake (sum-image 20-60 min post-injection) (S1R [1]; thalamus medio-dorsal): 3.9 ± 0.4 SUV
- time of maximum brain uptake (S1R [1]; post-injection, amygdala and thalamus medio-dorsal): 2.25 min
- maximum brain uptake (S1R [1]; thalamus medio-dorsal): 5.5 SUV
- Ki (σ1 receptor (S1R)): 2.6 nM
- change in ^18F-IAM6067 specific binding, ipsi- vs contralateral (S1R [2]): -38 ± 8% and -38%
- specific binding (S1R [3]; cingulate cortex, contralateral): 4.29 ± 0.84 PSL/pixel
- specific binding (S1R [3]; cingulate cortex, ipsilateral): 4.21 ± 0.87 PSL/pixel
- specific binding (S1R [3]; striatum, contralateral): 3.30 ± 0.55 PSL/pixel
- specific binding (S1R [3]; striatum, ipsilateral): 3.39 ± 0.49 PSL/pixel
- specific binding (S1R [3]; thalamus medio-dorsal, contralateral): 3.22 ± 0.65 PSL/pixel
- specific binding (S1R [3]; thalamus medio-dorsal, ipsilateral): 3.25 ± 0.64 PSL/pixel
- specific binding (S1R [3]; ventral tegmental area/substantia nigra, contralateral): 3.92 ± 1.08 PSL/pixel
- specific binding (S1R [3]; ventral tegmental area/substantia nigra, ipsilateral): 3.82 ± 1.25 PSL/pixel
- Percentage of ^18F-IAM6067 and metabolites ([4]; rat brain, 10 min post-injection): 91.3±3.7%
- Percentage of ^18F-IAM6067 and metabolites ([4]; rat brain, 20 min post-injection): 94.1±2.8%
- Percentage of ^18F-IAM6067 and metabolites ([4]; rat brain, 60 min post-injection): 91.3±6.0%
- Percentage of ^18F-IAM6067 and metabolites ([4]; rat plasma, 1 min post-injection): 88.8±12.1%
- Percentage of ^18F-IAM6067 and metabolites ([4]; rat plasma, 2 min post-injection): 58.3±4.1%
- Percentage of ^18F-IAM6067 and metabolites ([4]; rat plasma, 5 min post-injection): 22.4±11.6%
- Percentage of ^18F-IAM6067 and metabolites ([4]; rat plasma, 10 min post-injection): ~10%
- Percentage of ^18F-IAM6067 and metabolites ([4]; rat plasma, 10 min post-injection, listed as Parent): 10.1±8.6%
- Percentage of ^18F-IAM6067 and metabolites ([4]; rat plasma, 20 min post-injection): ~10%
- Percentage of ^18F-IAM6067 and metabolites ([4]; rat plasma, 20 min post-injection, listed as Parent): 9.8±4.2%
- Percentage of ^18F-IAM6067 and metabolites ([4]; rat plasma, 60 min post-injection): not detectable
- Percentage of ^18F-IAM6067 and metabolites ([4]; rat plasma, 60 min post-injection, listed as Parent): 0.0%
- specific binding (S1R [5]; cingulate cortex): 4.96 ± 0.26 PSL/pixel
- specific binding (S1R [5]; hypothalamus): 6.79 ± 0.95 PSL/pixel
- specific binding (S1R [5]; pons): 7.24 ± 0.89 PSL/pixel
- specific binding (S1R [5]; somatosensory cortex): 4.49 ± 0.51 PSL/pixel
- specific binding (S1R [5]; striatum): 4.56 ± 0.42 PSL/pixel
